Experimental data as given in patent US20220193085A1, “METHODS OF THROMBOPROPHYLAXIS” (JANSSEN PHARMACEUTICALS, INC., priority 2020, published 2022).
Values joined by “and” are separate entries in the source; they are usually repeats but may differ in a detail not shown here. Equal values may be shown once.

Experiments:
[1] = UNIVERSE primary efficacy outcome: any thrombotic event (CIAC adjudicated); assay type: in vivo, pediatric patients; conditions: full analysis set
Description: This study was a prospective, open-label, active-controlled, multicenter study designed to evaluate the PK and PK/PD profiles, safety, and efficacy of rivaroxaban for thromboprophylaxis in pediatric patients 2 to 8 years of age with single ventricle physiology who have completed the Fontan procedure within 4 months prior to enrollment. The trial was approved by the institutional review board of each participating institution, as well as the appropriate national ethics committee. Written informed consent for trial participation was obtained from the parent or guardian of each patient. An Independent Data Monitoring Committee (IDMC) ensured patients' safety throughout the trial. A Central Independent Adjudication Committee (CIAC) reviewed all efficacy and safety events.
Part B was the randomized, open-label, active-controlled part of the study that evaluated the safety and efficacy of twice daily administration of rivaroxaban compared to ASA (usual standard of care) for thromboprophylaxis for 12 months. Patients randomized to rivaroxaban also had PK and PD assessments.
Primary efficacy outcome: Any thrombotic event, venous or arterial, symptomatic or asymptomatic defined as: • The appearance of a new thrombus within the cardiovascular system on either routine surveillance or clinically indicated imaging, or • The occurrence of a clinical event known to be strongly associated with thrombus (e.g., stroke, pulmonary embolism).
All efficacy outcomes were adjudicated by the CIAC, blinded to assigned treatment.

[2] = UNIVERSE adverse events, serious adverse events and treatment discontinuation; assay type: in vivo, pediatric patients
Description: Other safety outcomes: Any adverse events and serious adverse events (SAES).

[3] = UNIVERSE primary efficacy outcome: any thrombotic event (CIAC adjudicated); assay type: in vivo, pediatric patients; conditions: Part A N=12; up to end of treatment; full analysis set
[4] = clinical; conditions: human, plasma, oral
[5] = Benefit-risk assessment: excess number of events per 1,000 subjects, Part B rivaroxaban vs aspirin
[6] = UNIVERSE study: population PK and steady-state exposure of rivaroxaban in post-Fontan pediatric patients
[7] = Part A N=12, up to end of treatment
[8] = Part B rivaroxaban N=64, aspirin N=34, up to end of treatment
[9] = rivaroxaban Part A+B total N=76, up to end of treatment
[10] = Part A N=12, treatment-emergent, safety set
[11] = Part B rivaroxaban N=64, aspirin N=34, safety set
[12] = Part B rivaroxaban N=64, aspirin N=34, treatment-emergent, safety set
[13] = Part B rivaroxaban N=64, aspirin N=34, up to end of treatment, full analysis set
[14] = Part B rivaroxaban minus aspirin, up to end of treatment, full analysis set
[15] = Part B rivaroxaban vs aspirin, negative values favor rivaroxaban
[16] = Part B rivaroxaban vs aspirin, positive values favor aspirin
[17] = for 1,000 subjects treated with rivaroxaban
[18] = UNIVERSE Part A, weight-based dose regimen BID, N=12
[19] = UNIVERSE all patients, weight-based dose regimen BID, N=76
[20] = full UNIVERSE data-set, population PK model
[21] = full UNIVERSE data-set, subject with body weight of 15 kg

SMILES: O=C(NC[C@H]1CN(c2ccc(N3CCOCC3=O)cc2)C(=O)O1)c1ccc(Cl)s1 [Rivaroxaban, 5-chloro-N-({(5S)-2-oxo-3-[4-(3-oxo-4-morpholinyl)phenyl]-1,3,oxazolidin-5-yl}methyl)-2-thiophenecarboxamide]
- Ischemic stroke, subjects n (%) [1, 7]: 0
- Other thrombosis, subjects n (%) [1, 7]: 0
- All-cause mortality, No. of subjects with event [1, 8]: 0
- Any thrombotic event (primary efficacy outcome), % of subjects [1, 8]: (1.6%)
- Arterial/intracardiac thrombosis, subjects n (%) [1, 8]: 0
- Ischemic stroke, subjects n (%) [1, 8]: 0
- Other thrombosis, subjects n (%) [1, 8]: 0
- Pulmonary embolism, % of subjects [1, 8]: (1.6%)
- Venous thromboembolism, % of subjects [1, 8]: (1.6%)
- Venous thromboembolism, No. of subjects with event [1, 8]: 1/64
- Venous thrombosis, subjects n (%) [1, 8]: 0
- Any thrombotic event (primary efficacy outcome), % of subjects ([1]; rivaroxaban Part A+B total N=76): 3%
- Arterial/intracardiac thrombosis, subjects n (%) [1, 9]: 0
- Ischemic stroke, subjects n (%) [1, 9]: 0
- Other thrombosis, subjects n (%) [1, 9]: 0
- AEs related to Study Agent, n (%) ([2]; Part A N=12, safety set): 3 (25.0%)
- SAEs related to Study Agent, n (%) ([2]; Part A N=12, safety set): 0
- TEAEs resulting in Permanent Discontinuation of Study Agent, n (%) ([2]; Part A N=12, safety set): 0
- Adverse event: Pleural Effusion, % of participants [2, 10]: (25%)
- Adverse event: Pleural Effusion, n (%) [2, 10]: 3
- All TESAEs (subjects with 1 or more serious adverse events), % of subjects [2, 10]: (50%)
- Serious adverse event: Infections, % of participants [2, 10]: (25%)
- Serious adverse event: Infections, n (%) [2, 10]: 3
- Serious adverse event: Pleural Effusion, % of participants [2, 10]: (17%)
- Serious adverse event: Pleural Effusion, n (%) [2, 10]: 2
- Serious adverse event: Respiratory, Thoracic, and Mediastinal Disorders, % of participants [2, 10]: (17%)
- Serious adverse event: Respiratory, Thoracic, and Mediastinal Disorders, n (%) [2, 10]: 2
- TEAE: Gastrointestinal Disorders, n (%) [2, 10]: 6
- TEAE: General Disorders and Administration Site Conditions, n (%) [2, 10]: 1
- TEAE: Injury, Poisoning, and Procedural Complications, n (%) [2, 10]: 4
- TEAE: Respiratory, Thoracic, and Mediastinal Disorders, n (%) [2, 10]: 5
- TEAE: Skin and Subcutaneous Tissue Disorders, n (%) [2, 10]: 3
- TEAE: Vascular Disorders, n (%) [2, 10]: 2
- Study treatment discontinued due to adverse event of mood disturbance, subjects n (%) ([2]; Part B rivaroxaban N=64): 1 (1.6%)
- AEs related to Study Agent, n (%) [2, 11]: 20 (31.3%)
- SAEs related to Study Agent, n (%) [2, 11]: 1 (1.6%)
- TEAEs resulting in Permanent Discontinuation of Study Agent, n (%) [2, 11]: 2 (3.1%)
- All TEAEs (subjects with 1 or more), n (%) [2, 12]: 55 (85.9%) and 55 (86%)
- All TESAEs (subjects with 1 or more serious adverse events), n (%) [2, 12]: 18 (28.1%) and 18 (28%)
- Serious adverse event: Infections, n (%) [2, 12]: 5 (8%)
- Serious adverse event: Pleural Effusion, n (%) [2, 12]: 9 (14%)
- Serious adverse event: Respiratory, Thoracic, and Mediastinal Disorders, n (%) [2, 12]: 9 (14%)
- TEAE: Gastrointestinal Disorders, n (%) [2, 12]: 19 (29.7%) and 19 (30%)
- TEAE: General Disorders and Administration Site Conditions, n (%) [2, 12]: 17 (26.6%) and 17 (27%)
- TEAE: Injury, Poisoning, and Procedural Complications, n (%) [2, 12]: 18 (28.1%) and 18 (28%)
- TEAE: Respiratory, Thoracic, and Mediastinal Disorders, n (%) [2, 12]: 29 (45.3%) and 29 (45%)
- TEAE: Skin and Subcutaneous Tissue Disorders, n (%) [2, 12]: 19 (29.7%) and 19 (30%)
- TEAE: Vascular Disorders, n (%) [2, 12]: 3 (4.7%) and 3 (5%)
- SAEs, % of subjects [2, 13]: (28.1%)
- SAEs, No. of subjects with event [2, 13]: 18/64
- New safety signals ([2]; UNIVERSE study): no new safety signals
- Arterial/intracardiac thrombosis, subjects n (%) [3]: 0
- Primary efficacy outcome (any thrombotic event), subjects n (%) [3]: 1 (8.3%) and 1 (8%)
- Pulmonary embolism, subjects n (%) [3]: 0
- AUC(0-t) [4]: 1480 ng·h/mL
- Cmax [4]: 124 ng/mL
- Excess number of events: CRNM bleeding [5, 14]: −25.7 events per 1,000 subjects
- Excess number of events: SAEs [5, 14]: 46.0 events per 1,000 subjects
- Excess number of events: all-cause mortality [5, 14]: 0.0 events per 1,000 subjects
- Excess number of events: any thrombotic event (primary efficacy outcome) [5, 14]: −72.6 events per 1,000 subjects
- Excess number of events: arterial/intracardiac thrombosis [5, 14]: 0.0 events per 1,000 subjects
- Excess number of events: fall in hemoglobin ≥2 g/dL or transfusion of the equivalent ≥2 units [5, 14]: 15.6 events per 1,000 subjects
- Excess number of events: fatal or critical site bleeding [5, 14]: 0.0 events per 1,000 subjects
- Excess number of events: ischemic stroke [5, 14]: −29.4 events per 1,000 subjects
- Excess number of events: major and clinically relevant non-major bleeding [5, 14]: −10.1 events per 1,000 subjects
- Excess number of events: major bleeding (primary safety outcome) [5, 14]: 15.6 events per 1,000 subjects
- Excess number of events: pulmonary embolism [5, 14]: 15.6 events per 1,000 subjects
- Excess number of events: trivial (minimal) bleeding [5, 14]: −24.8 events per 1,000 subjects
- Excess number of events: venous thromboembolism [5, 14]: −43.2 events per 1,000 subjects
- Excess number of events: venous thrombosis [5, 14]: −58.8 events per 1,000 subjects
- NNH: CRNM bleeding [5, 15]: −39
- NNH: major and clinically relevant non-major bleeding [5, 15]: −99
- NNH: trivial (minimal) bleeding [5, 15]: −41
- NNT: any thrombotic event (primary efficacy outcome) [5, 15]: −14
- NNT: ischemic stroke [5, 15]: −34
- NNT: venous thromboembolism [5, 15]: −24
- NNT: venous thrombosis [5, 15]: −17
- NNH: SAEs [5, 16]: 21
- NNH: fall in hemoglobin ≥2 g/dL or transfusion of the equivalent ≥2 units [5, 16]: 64
- NNH: major bleeding (primary safety outcome) [5, 16]: 64
- NNT: pulmonary embolism [5, 16]: 64
- Less events of clinically relevant non-major bleeding expected than with aspirin [5, 17]: 25 events
- More events of ISTH major bleeding expected than with aspirin [5, 17]: 16 events
- Thrombotic events (primary efficacy outcome) expected to be prevented compared with aspirin [5, 17]: 73 events
- Individual values for AUCss,24h, Cmax,ss and Ctrough,ss vs adult reference range ([6]; UNIVERSE Part A): within the adult reference range
- AUC24h,ss geometric mean (90% CI) [6, 18]: 1698 ng·h/mL
- AUC24h,ss median (range) [6, 18]: 1718 ng·h/mL
- Cmax,ss median (range) [6, 18]: 121.8 ng/mL
- Ctrough,ss geometric mean (90% CI) [6, 18]: 28.6 ng/mL
- Ctrough,ss median (range) [6, 18]: 29 ng/mL
- AUC24h,ss geometric mean (90% CI) [6, 19]: 1440 ng·h/mL
- Cmax,ss geometric mean (90% CI) [6, 19]: 109.0 ng/mL
- Cmax,ss median (range) [6, 19]: 113.3 ng/mL
- Ctrough,ss geometric mean (90% CI) [6, 19]: 22.8 ng/mL
- Ctrough,ss median (range) [6, 19]: 23.2 ng/mL
- Body weight exponent for Vc/F [6, 20]: 1.20
- First-order absorption rate constant [6, 20]: 1.12 h⁻¹
- CL/F (population PK estimate) [6, 21]: 3.30 L/h
- Q/F (population PK estimate) [6, 21]: 1.09 L/h
- Vc/F (population PK estimate) [6, 21]: 17.6 L
